Reference: article PMC6978316, “Development of chimeric peptides to facilitate the neutralisation of lipopolysaccharides during bactericidal targeting of multidrug-resistant Escherichia coli” (Communications Biology, 2020)
Where a SMILES comes first, the peptide text is derived from it. Bridges are numbered along the chain shown (N, C = ends).

Key:
[1] = system: MDR E. coli CVCC195; experiment: Time-killing curves (bactericidal kinetics); type: cell-based, Escherichia coli; conditions: 1 × or 2 × MIC, MHB, 37 °C
Experimental: The bactericidal effect of peptides was investigated according to previous methods. […] Physiological saline was added as a control. Bacterial samples (100 μl) were removed at different time points (0, 0.5, 1, 2, 4, 6, 8, 10, and 12 h) and were counted on MH solid plates. The time-killing curve of A6 and G6 was plotted.

[2] = system: MDR E. coli CVCC195; experiment: Thermal stability, residual antibacterial activity (inhibition zone); type: physicochemical, Escherichia coli; conditions: mean of n = 3
Experimental: The N6, A6, and G6 solutions were treated at different temperatures (20–100 °C) for 1 h, dissolved and incubated at different pH values (2–10) for 3 h, or incubated with trypsin or pepsin for 4 h. The inhibition zone diameters were measured after incubation at 37 °C for 18–24 h.

[3] = system: MDR E. coli CVCC195; experiment: SEM and TEM, cell morphology and ultrastructure; type: cell-based, Escherichia coli; conditions: E. coli CVCC195, 4 × MIC, 2 h; at least 200 cells scored; manuscript lines quoted in the peer review file
Experimental: SEM was used to examine the ultrastructural changes in bacteria treated with peptides. […] PBS was used as the negative control. After centrifugation, the bacterial precipitation was added with 2.5% glutaraldehyde and the cells were fixed at 4 °C for 24 h. After ethanol dehydration, drying and coating, samples were visualized by a QUANTA200 SEM (FEI, Philips, Netherlands)[65].
The processing and preparation of TEM samples was similar to that of SEM until glutaraldehyde fixation. After washing with PBS, bacterial cells were fixed in 1% […] buffer for 1 h, dehydrated in a series of acetone (50–100%) and embedded, followed by preparation into ultra-thin sections and staining with 1% uranyl acetate. […] At least 200 bacterial cells were visualized and scored for the observed characteristics.

[4] = system: E. coli LPS; experiment: BODIPY-TR-cadaverine (BC) displacement assay; type: binding, Escherichia coli; conditions: 100 μM
Experimental: The affinity of SCPs (A6, G6, and N6) to E. coli LPS was detected by the fluorescent BC probe. The binding of fluorescent probe with LPS can cause fluorescence quenching. When peptides bind to LPS, BC probe can be replaced, which can result in an increase in fluorescence. Equal volumes of LPS (40 μg per ml) and BC probe (10 μM) in 50 mM Tris buffer (pH 7.4) were mixed and added into a black 96-well microtiter plate (180 μl mixture per well), followed by the addition of different concentrations of A6, G6, or N6 (20 μl per well). Ampicillin and PMB were used as the negative and positive control, respectively. Changes in fluorescence were measured by a fluorescence spectrophotometry at room temperature (excitation: 580 nm, emission: 620 nm) and the BC displacement rate was calculated.

[5] = system: binding of FITC-labeled LPS to RAW 264.7 cells; experiment: Binding of FITC-labeled LPS to macrophages (flow cytometry); type: cell-based, mouse; conditions: FITC-LPS 100 μg per ml, 0.1 μM peptide 1 h
Experimental: Similarly, after an incubation with FITC-labeled LPS and washing with medium, cells were incubated with rhodamine-labeled A6 or G6 (0.1 μM) at 37 °C for 1 h. After washing again, the effects of peptides on the binding of FITC-labeled LPS to the cells were analyzed by CLSM and flow cytometry, respectively.

[6] = system: TNF-α, IL-6 and IL-10 in LPS-stimulated RAW 264.7 cells; experiment: Cytokines in LPS-stimulated macrophages (ELISA); type: cell-based, mouse; design: unit not given here
Experimental: Macrophages RAW 264.7 were incubated with LPS (0.1 and 1 μg per ml) that was dissolved in serum-free DMEM medium, and then were treated with A6, G6, N6, or PMB (20 μM) alone in 24-well plates (2.5 × 10^5 cells per well). The cells incubated with serum-free DMEM and LPS were used as a control. After treatment for 2 h, the supernatants were collected and assessed for TNF-α, IL-6, and IL-10 by using the ELISA kits in the Jiaxuan Biotech. Co. Ltd. (Beijing, China).
73 Supplementary Figure 15. Effects of SCPs on cytokines in RAW 264.7 ells. Cells were incubated with 0.1 μg per
74 ml (a) or 1 μg per ml (b) LPS and 20 μM A6, G6, N6 or PMB for 2 h. The levels of TNF-α, IL-6 and IL-10 in
75 supernatants were measured using ELISA. The data are given as the mean ± SD (n = 3 independent experiments).
76 Different lower case letters indicate a significant difference between two groups (p < 0.05).
(1 picture or pasted object on this page, not shown here)

[7] = system: E. coli LPS; experiment: Sepsis mouse model, survival after lethal LPS challenge; type: in vivo, ICR mice; conditions: mice, LPS 13.5 mg per kg i.p., 7 d, n = 5; for mouse survival: 0.125 μmol per kg
Experimental: The mouse survival was recorded for 7 d. The mice injected with LPS or saline were used as negative or blank controls, respectively.

[8] = system: NF-κB p-p65 subunit; experiment: Western blotting of lung tissues, p-p65/p65; type: in vivo, mice; conditions: for densitometric analysis of p-p65/p65 ratio: LPS + substance, Mean; for inhibition of LPS-induced translocation of the NF-κB p-p65 subunit: lung tissue 8 h, LPS 13.5 mg per kg, western blotting, densitometry
Experimental: (§1) Additionally, the mice were sacrificed at 8 h and the lung tissues were homogenized and suspended in […] HEPES buffer for 20 min according to standard procedures. After centrifugation at 4 °C for 20 min (12,000 rpm), the protein levels of supernatants were quantified using a Bradford protein assay kit. A total of 30 μg proteins were analyzed on an 8–12% sodium dodecyl sulfate-polyacrylamide gel electrophoresis (SDS-PAGE) gel and were immunoblotted onto PVDF membranes, followed by an incubation with the primary antibodies of p65, p-p65, extracellular signal-regulated kinase (ERK)1/2, p-ERK1/2, and IκBα overnight at 4 °C. After washing, the blots were incubated with the peroxidase conjugated goat-rabbit or goat-mouse antibodies. Relative protein expression levels were quantified by a densitometric measurement of chemiluminescence (ECL) reaction band. β-actin was used as the internal reference.

[9] = system: ERK1/2 phosphorylation; experiment: Western blotting of lung tissues, p-ERK1/2/ERK1/2; type: in vivo, mice; conditions: for densitometric analysis of p-ERK1/2/ERK1/2 ratio: LPS + substance, Mean; for attenuation of ERK1/2 phosphorylation: lung tissue 8 h, LPS 13.5 mg per kg, western blotting, densitometry
Experimental: as §1

[10] = system: IκBα; experiment: Western blotting of lung tissues, IκBα/β-actin; type: in vivo, mice; conditions: for densitometric analysis of IκBα/β-actin ratio: LPS + substance, Mean; for effect on LPS-induced IκBα levels: lung tissue 8 h, LPS 13.5 mg per kg, western blotting
Experimental: as §1

[11] = system: E. coli CVCC195; type: cell-based, Escherichia coli; conditions: E. coli CVCC195
Experimental: Bacterial resistance against the peptides was assessed via the MIC assays. […] After 16–18 h of incubation at 37 °C, cells from the second highest concentration showing visible growth were used to inoculate the subsequent cultures. The MIC values for drug passage cultures were obtained as described above. This process was repeated for 30 d.

[12] = 20℃ for 1 h, inhibition zone vs E. coli CVCC195 after 37 °C 18–24 h
[13] = 40℃ for 1 h, inhibition zone vs E. coli CVCC195
[14] = 60℃ for 1 h, inhibition zone vs E. coli CVCC195
[15] = 80℃ for 1 h, inhibition zone vs E. coli CVCC195
[16] = 100℃ for 1 h, inhibition zone vs E. coli CVCC195
[17] = RAW 264.7 cells incubated with 0.1 μg per ml LPS
[18] = RAW 264.7 cells incubated with 1 μg per ml LPS

Row | Compound | time to completely kill E. coli CVCC195 [1] [h] | antibacterial activity after heat treatment (inhibition zone diameter), Mean [2, 12] | antibacterial activity after heat treatment (inhibition zone diameter), Mean [2, 13] | antibacterial activity after heat treatment (inhibition zone diameter), Mean [2, 14] | antibacterial activity after heat treatment (inhibition zone diameter), Mean [2, 15] | abnormal cells in TEM (lysis, non-uniform cytoplasmic electron and morphologically abnormal cells) [3] | BC displacement ratio [4] [%] | inhibition rate of FITC-labeled LPS binding to RAW 264.7 cells [5] [%] | IL-6 Mean [6, 17] | IL-10 Mean [6, 17] | TNFα Mean [6, 17] | IL-6 Mean [6, 18] | IL-10 Mean [6, 18] | TNFα Mean [6, 18] | densitometric analysis of p-p65/p65 ratio [8] | inhibition of LPS-induced translocation of the NF-κB p-p65 subunit [8] [%] | densitometric analysis of p-ERK1/2/ERK1/2 ratio [9] | attenuation of ERK1/2 phosphorylation [9] | densitometric analysis of IκBα/β-actin ratio [10] | effect on LPS-induced IκBα levels [10] | also measured
1 | CC(C)[C@@H]1NC(=O)CNC(=O)[C@H](CC(N)=O)NC(=O)[C@H](CCCNC(=N)N)NC(=O)[C@H](Cc2ccc(O)cc2)NC(=O)[C@H](C(C)C)NC(=O)[C@@H](NC(=O)[C@@H](NC(=O)[C@H](CC(N)=O)NC(=O)[C@H](Cc2c[nH]c3ccccc23)NC(=O)[C@H](C)NC(=O)[C@H](Cc2ccccc2)NC(=O)CN)C(C)C)CSSC[C@@H](C(=O)N[C@@H](Cc2c[nH]cn2)C(=O)N[C@@H](CCCNC(=N)N)C(=O)N[C@@H](CCCNC(=N)N)C(=O)N[C@@H](C)C(=O)N[C@@H](CC(N)=O)C(=O)O)NC(=O)[C@H](C(C)C)NC(=O)[C@H](CCCNC(=N)N)NC1=O [N6] (H-GFAWNVCVYRNGVRVCHRRAN-OH; disulfide 7-16; N-terminus and C-terminus assumed) | 4 | 1.935 | 1.912 | 1.95 | 1.964 | 19% | 90.5 | 8 | 279.833 | 106.233 | 479.8 | 303.4 | 118.033 | 495.967 | 0.9793 | 5 | 0.9271 | 16.1% | 1.158 | promoted LPS-induced IκBα levels | antibacterial activity after heat treatment (inhibition zone diameter), Mean [2, 16]: 1.917; mouse survival [7]: 60%; survival ([7]; 0.25 μmol per kg): All mice survived
2 | H-RVQGRWKVRASFFKEAAAKEAAAKGFAWNVCVYRNGVRVCHRRAN-OH (disulfide 31-40) [A6] | ≤ 1 | 1.498 | 1.533 | 1.494 | 1.5 | Approximately 75% | 100 | 33.2 | 246.9 | 89.8 | 410.667 | 216.667 | 77.3667 | 355.9 | 0.106 | 89.7 | 1.795 | moderately promoted the ERK1/2 phosphorylation | 1.193 | promoted LPS-induced IκBα levels | antibacterial activity after heat treatment (inhibition zone diameter), Mean [2, 16]: 1.477; change of MIC over the course of 30 serial passages [11]: hardly changed; survival rate ([7]; 0.0625 μmol per kg): 60%; mouse survival [7]: 100%
3 | polymyxin B [PMB] | ≤ 1 |  |  |  |  | 1% | 83.7 | 13.5 | 311.767 | 122.2 | 546.867 | 278.7 | 116.9 | 447.633 | 0.01553 | 98.4 | 1.579 | moderately promoted the ERK1/2 phosphorylation | 1.0324 | promoted LPS-induced IκBα levels | change of MIC over the course of 30 serial passages [11]: hardly changed; survival ([7]; 10 μmol per kg): All mice survived
